From US20080260644A1, “CHLORIDE TRANSPORT UPREGULATION FOR THE TREATMENT OF TRAUMATIC BRAIN INJURY” (priority 2005, published 2008)

What was measured:
dentate granule cells = experiment: Gramicidin perforated patch recording of the membrane potential response to GABA in dentate granule cells in brain slices; format: cell-based, mouse
Procedure: Brain slices were prepared as previously reported (Witgen et al. (2005) Neuroscience, 133:1-15). Perforated patch recordings were conducted at room temperature from visually identified DG neurons using infrared differential interference contrast video microscopy (Stuart et al. (1993) Pflugers Arch., 423:511-8). Cells were voltage clamped at −60 mV, and signals were recorded and amplified with Axopatch 200 (Axon instruments, Foster city, CA), filtered at 2 kHz, digitized, and stored on a PC microcomputer for off line analysis. Electrodes were pulled to a resistance between 6 and 8 MΩ when filled with an internal solution composed of in (mM): 100 KCl, 10 Hepes, pH 7.4 (KOH), on a two stage puller (Sutter instruments, Novato, Calif.). Gramicidin (Sigma, St. Louis) was dissolved in dimethyllsulfuxide (DMSO, Sigma) (1-2 mg/ml) then diluted in the pipette filling solution (1:1000). Progress of membrane patch perforation was evaluated by following the decrease in access resistance (Ra) and recordings were begun once Ra had stabilized ([…]). Current-voltage (IV) relationships were generated using a voltage ramp (−110 to +40 ata rate of 107 mV/ms) in the absence and presence of agonist (GABA, 100 μM, applied 125 ms, 40-60 PSI using a Picospritzer II, General Valve Corporation, Fairfield, N.J.). For chloride fluorescence experiments, the internal solution was composed of (in mM) Kgluconate, 145; MgCl2, 2; BAPTA, 0.1; KCl, 2.5; NaCl, 2.5; HEPES, 10; GTP-Tris, 0.5; Mg-ATP, 2; pH 7.4 (KOH; Vhold=0 mV). For low K^+ experiments, KCl concentration was reduced from 3 to 1 mM while the concentration of NaCl was increased to maintain tonicity.
In order to investigate the functional consequences of reduced KCC2 expression in DG from injured animals, gramacidin perforated patch recordings were performed in dentate granule cells in brain slices derived from sham and FPI animals. Current-voltage (1-V) relationships were created using a voltage ramp that stepped the membrane voltage from a holding potential of −60 mV to −110 mV for 200 ms and then ramped the voltage from −110 to +40 mV at a rate of 107 mV/msec. I-V relationships were plotted by subtracting ramp currents recorded in control solution (aCSF) from currents recorded in the presence of ionophoresed agonist (GABA 100 μm) in brain slices from both sham (FIG. 2A) and FPI (FIG. 2B) animals. […] Mean EGABA values were −72±4.3 (n=7) in sham slices and −51±4.0 mV (n=16) in FPI slices. To ensure that the perforated patch configuration remained intact during the experiment, in several dentate granule cells (recorded in slices from both sham and injured animals) the patch was subsequently ruptured to enter into the whole cell configuration. […]

dentate gyrus = experiment: Dentate gyrus throughput index (TI), voltage sensitive dye fluorescence in hippocampal slices; format: cell-based, mouse
Description: Slices were stimulated in the perforant pathway with one theta burst stimulation (TBS) (5 pulses of 50 μA at 100 Hz). Circles (kernels) represent average fluorescent signals in the DG and hilus respectively. FIG. 5B is a graph of the percent throughput of sham and injured (LFPI) mice.
Normal hippocampal function is directly determined by a balance between neuronal excitation and inhibition. Within the hippocampus there are three interconnected subregions referred to collectively as the ‘Trisynaptic Circuit.’ This circuit consists of the dentate gyrus (DG), area CA3, and area CA1, each having distinct physiological roles. The DG “filters” out aberrant or excessive input to the hippocampus and limits this activity from propagating further along the hippocampal circuit. […]
It is believed that the DG acts as a filter because it is extraordinarily resistant to the generation of synchronized bursting characteristic of epileptic seizures. […] Making use of fluorescent voltage sensitive dyes as a measure of hippocampal neuronal activity, a straightforward relationship has been devised in order to quantify the efficacy of dentate gyrus filtering capacity. “Throughput Index” (TI) is defined as the amount of fluorescence in the hilus divided by the fluorescence in the upper (suprapyramidal) blade of the dentate gyrus induced by afferent (perforant path) stimulation. […]

Question: What does the source list for NCCCC(=O)O [GABA, gamma-aminobutyric acid]?
Answer: membrane potential response to iontophoresed GABA (dentate granule cells; DG neurons from naïve or sham animals, GABA 100 μM): −14±0.7 mV; membrane potential response to iontophoresed GABA (dentate granule cells; DG neurons in slices from injured (FPI) animals): depolarizing response

Question: Which “effect on dentate gyrus throughput index (TI)” value (dentate gyrus; slices from brain injured (FPI) animals) does the source give for CCCC(=O)O[C@@H]1[C@@H](C)[C@@]2(O)[C@@H](C=C(CO)C[C@]3(O)C(=O)C(C)=C[C@@H]23)[C@@H]2C(C)(C)[C@]12OC(=O)CCC [PDBu, phorbol 12,13-dibutyrate] here?
Answer: Its value is “significantly (p<0.05) reduces”.

Question: What about the “effect on DG filtering (TI)” value (dentate gyrus; slices from sham animals) of the same molecule?
Answer: Its value is “does not affect”.

Question: How did the “GABA response in the presence of bumetanide compared to GABA alone” value (dentate granule cells; slices from sham animals, bumetanide 10 μM) turn out when CCCCNc1cc(C(=O)O)cc(S(N)(=O)=O)c1Oc1ccccc1 [bumetanide] was run?
Answer: The value was 39%.

Question: What about the “response to focally applied GABA in the presence of bumetanide” value (dentate granule cells; slices from sham animals, bumetanide 10 μM bath applied, n=15) of the same molecule?
Answer: The value was −5±3.1 mV.
